Laboratory results taken from ChEMBL document CHEMBL4411294, “Synthesis and biological evaluation of cyanoaziridine phosphine oxides and phosphonates with antiproliferative activity” (Eur J Med Chem, 2019).

What was measured:
HEK293 = experiment: Cytotoxicity against human HEK293 cells assessed as reduction in cell viability after 48 hrs by CCK8 assay; type: cell-based; settings: HEK293, 48 h
A549 = experiment: Cytotoxicity against human A549 cells assessed as reduction in cell viability after 48 hrs by CCK8 assay; type: functional, cell-based; settings: A549, 48 h
MRC5 = experiment: Cytotoxicity against human MRC5 cells assessed as reduction in cell viability after 48 hrs by CCK8 assay; type: cell-based; settings: MRC5, 48 h

Question: With C[C@@]1(C#N)N[C@H]1P(=O)(c1ccccc1)c1ccccc1 (relative stereo) as the compound, how does the IC50 (HEK293) read?
Answer: Its IC50 is over 50 µM.

Question: And the IC50 (A549)?
Answer: Its IC50 is 2 µM.

Question: What about the IC50 (MRC5) of the same compound?
Answer: The IC50 was over 50 µM.

Question: How did the IC50 (HEK293) turn out when CC[C@]1(C#N)[C@H](P(=O)(c2ccccc2)c2ccccc2)N1S(=O)(=O)c1ccc(C)cc1 (relative stereo) was run?
Answer: Its IC50 is 43.2 µM.

Question: And the IC50 (A549)?
Answer: Its IC50 is 2.3 µM.

Question: What about the IC50 (MRC5) of the same compound?
Answer: Its IC50 is over 50 µM.

Question: Which IC50 (HEK293) does the source give for Cc1ccc(S(=O)(=O)N2[C@@H](P(=O)(OC(C)C)OC(C)C)[C@]2(C)C#N)cc1 (relative stereo) here?
Answer: The IC50 was over 50 µM.

Question: And the IC50 (A549)?
Answer: Its IC50 is 3.4 µM.

Question: What about the IC50 (MRC5) of the same compound?
Answer: Its IC50 is over 50 µM.

Question: For CC[C@@]1(C#N)N[C@H]1P(=O)(c1ccccc1)c1ccccc1 (relative stereo), which IC50 (HEK293) is on record?
Answer: The IC50 was over 50 µM.

Question: And the IC50 (A549)?
Answer: Its IC50 is 3.3 µM.

Question: What about the IC50 (MRC5) of the same compound?
Answer: The IC50 was over 50 µM.

Question: What does the source list for C[C@@]1(C#N)N[C@H]1P(=O)(O)O (relative stereo)?
Answer: IC50 (HEK293): > 50 µM; IC50 (A549): 8.5 µM; IC50 (MRC5): > 50 µM

Question: What does the source list for CCOP(=O)(OCC)[C@@H]1N(S(=O)(=O)c2ccc(C)cc2)[C@]1(C#N)CC (relative stereo)?
Answer: IC50 (HEK293): > 50 µM; IC50 (A549): 4.9 µM; IC50 (MRC5): > 50 µM

Question: CCOP(=O)(OCC)[C@@H]1N(S(=O)(=O)c2ccc(C)cc2)[C@@]1(C)C#N (relative stereo) was tested. Which IC50 (HEK293) did it give?
Answer: Its IC50 is over 50 µM.

Question: And the IC50 (MRC5)?
Answer: The IC50 was over 50 µM.

Question: Which results are given for C[C@]1(C#N)[C@H](P(=O)(c2ccccc2)c2ccccc2)N1C(=O)OCc1ccccc1 (relative stereo)?
Answer: IC50 (HEK293): 30.1 µM; IC50 (A549): 8.1 µM; IC50 (MRC5): > 50 µM

Question: What does the source list for Cc1ccc(S(=O)(=O)N2[C@@H](P(=O)(c3ccccc3)c3ccccc3)[C@]2(C)C#N)cc1 (relative stereo)?
Answer: IC50 (HEK293): > 50 µM; IC50 (A549): 3.1 µM; IC50 (MRC5): > 50 µM

Question: Which IC50 (MRC5) does the source give for COc1cccc2c1C(=O)c1c(O)c3c(c(O)c1C2=O)C[C@@](O)(C(=O)CO)C[C@@H]3O[C@H]1C[C@H](N)[C@H](O)[C@H](C)O1 [DOXORUBICIN] here?
Answer: The IC50 was over 50 µM.
